Tests used:
Assay type in all cases: cell-based
[1] = test system: human epidermal keratinocytes, neonatal, or HEKn cells; test: Cell proliferation assay, HEKn (wild-type ERBB1); details: Keratinocyte, 72 hrs compound treatment
Description: (§1) The biological activity of a test compound was determined using cell proliferation assays. The activity against wild-type ERBB1 was determined using A431 human epidermoid carcinoma cells (ATCC) and human epidermal keratinocytes, neonatal, or HEKn cells (ATCC).
(§2) A431 cells were grown in DMEM (Invitrogen) supplemented with 10% FBS (Lonza), 1% penicillin-streptomycin, and 2 mM glutamine (Invitrogen). HEKn cells were grown in EPILIFE® (Invitrogen) supplemented with HKGS (Invitrogen). […] Cells were maintained and propagated at 37° C. and 5% CO2 in a humidified cell culture incubator. Aliquots of cells from early passages were preserved for liquid nitrogen storage. Frozen vials of cells were thawed at 37° C. water bath. Cells were spun to remove freezing medium. The newly revived frozen cells were adapted in culture for 10 days before used for compound testing. Cells used in the assay were less than 20 subculture passages or 3 months in culture.
(§3) The test compounds were dissolved in dimethylsulfoxide (DMSO) and stored at −20° C. before testing. […] The cells were placed in a culture incubator overnight. Next day, test compounds in DMSO were added to the cells and placed back in the culture incubator for 72 hrs. In the meantime, the cell numbers at time zero of the compound treatment (T0) was measured by EnerCount (Codex BioSolutions). At the end of the compound treatment, the cell numbers were again measured by EnerCount as T72 values. The untreated controls (Ctrl) were cell numbers recorded from the 0.1% DMSO treatment. The percent growth inhibition by the test compound was calculated by the formula: (1−(T72−T0)/(Ctrl−T0))×100.
(§4) The results are summarized in Tables 1 and 2, wherein A represents a value no greater than 500 nM, B represents a value greater than 500 nM but no greater than 1 μM, C represents a value greater than 1 μM but no greater than 5 μM, and D represents a value greater than 5 μM; and wherein A′ represents a ratio of greater than 10, B′ represents a ratio of no greater than 10 but no less than 5, C′ represents a ratio of no greater than 5 but no less than 2, and D′ represents a ratio of no greater than 2.

[2] = test system: HCC827 human NSCLC adenocarcinoma cells; test: Cell proliferation assay, HCC827 (mutant ERBB1, exon 19 deletion); details: for GI50: Homo sapiens, HCC827, 72 hrs compound treatment
Description: as §1, §2, §3, §4

[3] = test system: H1975 human NSCLC adenocarcinoma cells; test: Cell proliferation assay, H1975 (drug-resistant mutant ERBB1, T790M/L858R); details: for GI50: Homo sapiens, NCI-H1975, 72 hrs compound treatment
Description: as §1, §2, §3, §4

[4] = test system: A431 human epidermoid carcinoma cells; test: Cell proliferation assay, A431 (wild-type ERBB1); details: A-431, 72 hrs compound treatment, class symbols
Description: as §1, §2
as §3, with “(1−(T72−T0)/(Ctrl−T0))×100. […]” for “(1−(T72−T0)/(Ctrl−T0))×100.”

GI50 ([2]; class symbols) | GI50 ([3]; class symbols) | GI50 [4] | GI50 ([2]; numeric values, unit inferred) | GI50 ([3]; numeric values, unit inferred) | SMILES | GI50 ([1]; class symbols) | GI50 ([1]; numeric values, unit inferred) | Selectivity Ratio (Wild-type ERBB1/Mutant ERBB1) HEKn/HCC827 ([2]; ratio of GI50 HEKn/HCC827) | Selectivity Ratio (Wild-type ERBB1/Mutant ERBB1) HEKn/H1975 ([3]; ratio of GI50 HEKn/H1975)
< 500 nM | < 500 nM | 1000 to 5000 nM | – | – | C=CC(=O)N1CCCC[C@@H](n2c(NC(=O)c3ccnc(C)c3)nc3ccc4c(c32)OCCO4)C1 [C1, (R)—N-(1-(1-acryloylazepan-3-yl)-7,8-dihydro-1H-[1,4]dioxino[2′,3′:3,4]benzo[1,2-d]imidazol-2-yl)-2-methylisonicotinamide] | 1000 to 5000 nM | – | – | –
< 500 nM | < 500 nM | 1000 to 5000 nM | – | – | C=CC(=O)N1CCCC[C@@H](n2c(NC(=O)c3ccnc(OC)c3)nc3ccc4c(c32)OCCO4)C1 [C2, (R)—N-(1-(1-acryloylazepan-3-yl)-7,8-dihydro-1H-[1,4]dioxino[2′,3′:3,4]benzo[1,2-d]imidazol-2-yl)-2-methoxyisonicotinamide] | 1000 to 5000 nM | – | – | –
– | – | – | 32 nM | 109 nM | C=CC(=O)Nc1cccc(Nc2nc(Nc3ccc(N4CCN(C(C)=O)CC4)cc3OC)ncc2C(F)(F)F)c1 [CO-1686, reference compound] | – | 2500 nM | A′ (A′ represents a ratio of greater than 10) | A′ (A′ represents a ratio of greater than 10)
< 500 nM | < 500 nM | 1000 to 5000 nM | – | – | C=CC(=O)N1CCCC[C@@H](n2c(NC(=O)c3ccnc(C(F)(F)F)c3)nc3ccc4c(c32)OCCO4)C1 [B1, (R)—N-(1-(1-acryloylazepan-3-yl)-7,8-dihydro-1H-[1,4]dioxino[2′,3′:3,4]benzo[1,2-d]imidazol-2-yl)-2-(trifluoromethyl)isonicotinamide] | > 5000 nM | – | – | –
